Where two headings read alike, the source gives them in different places. Where a SMILES comes first, the peptide text is derived from it. Where no end group is shown, it is not given here. [ ]: non-standard residue; d: D form. The star is where a group is joined. PEG4 = NCCOCCOCCOCCOCCC(=O)O; Piperidide = C1CCN(*)CC1
Tests used:
H838 cell line = format: cell-based; conditions: 24 h
Procedure: (§1) MTT assay was conducted as previously described.^[ [44] ^] Tumor cell lines (NCI‐H460, NCI‐H838, HT‐1080, MCF‐7, PC‐3, U‐251‐MG, and U‐87 MG) were seeded in 96‐well plates at a density of 8000 cells per well in a volume of 100 µL and cultured for 24 h. Normal cell lines (HaCaT, HMEC‐1, MRC‐5, and HEK‐293) were seeded in 96‐well plates at a density of 10 000 cells per well in a volume of 100 µL and cultured for 48 h. After that, only tumor cell lines were starved with 100 µL of SFM for a further 4–6 h. Subsequently, cells were treated with 100 µL of compound solutions with different concentrations for 24 h. Cells treated with SFM and 0.5% DMSO in SFM served as blank control and growth control, respectively. Ten µL of MTT solution (5 mg mL^−1) was added to each well, followed by an additional incubation period of 2 h for tumor cells and 4 h for normal cells. Finally, the solvent in each well was swapped with 100 µL of DMSO to dissolve the formazan crystals. The absorbance was measured by the plate reader at 570 nm.
(§2) The cell viability was calculated (1) Cellviability%=ODSamplegroup−ODBlank/ODGrowthgroup−ODBlank×100%

HMEC-1 normal cell line = format: cell-based; conditions: 24 h
Procedure: as §1, §2

HT-1080 cell line = format: cell-based; conditions: 24 h
Procedure: as §1, §2

HaCaT normal cell line = format: cell-based; conditions: 24 h
Procedure: as §1, §2

MRC-5 normal cell line = format: cell-based; conditions: 24 h
Procedure: as §1, §2

HEK-293 normal cell line = experiment: cells; format: cell-based; conditions: 24 h
Procedure: as §1, §2

erythrocytes = format: cell-based; conditions: red cells of horse, 2 h
Procedure: Defibrinated horse blood (1 mL) was washed 3 times with 0.9% NaCl solution to remove plasma and then resuspended in 20 mL of 0.9% NaCl solution to obtain a red blood cell (RBC) suspension. Aliquots of the RBC suspension (100 µL) were incubated with 100 µL of compound solutions at concentrations ranging from 100 to 1.5625 µM (twofold serial dilution) for 2 h at 37 °C. RBCs treated with 0.9% NaCl solution and 1% Triton X‐100 solution served as blank and positive controls, respectively. Subsequently, the samples were centrifuged at 900 × g for 10 min, and the absorbance of the supernatant was measured at 570 nm.
The hemolysis ratio was calculated as (2) Hemolysis%=ODSamplegroup−ODBlank/ODPositivegroup−ODBlank×100%

H460 cell line [1] = format: cell-based; conditions: 24 h
Procedure: as §1
The antimicrobial stability evaluation was determined in the presence of physiological concentrations of serum. Twenty five µL of compound solutions with the concentration of 3 mM and 25 µL of human serum were mixed. The mixture was incubated for 0, 2, 4, 6, 12, 24 h at 37 °C and then incubated for 15 min at 60 °C to inactivate the enzymes. […]

[2] = system: 5-Fluorouracil-resistance H460 cell line; format: cell-based; conditions: 24 h
Procedure: as §1
(§3) Wild type H460 cells were cultured in a T‐75 flask and exposed to 30 µM of cisplatin. Cells were passed when the confluency reached 90%. The IC50 value of cisplatin on this cell line was evaluated every two passages. After the IC50 value was higher than 500 µM, the cultured medium was changed to normal CGM, and the cell line was cultured for another three passages. The IC50 value was evaluated again to make sure the resistance was stable. The other three resistance cell lines establishment process was similar. […] Parental NCI‐H460 cells were exposed to 10 µM 5‐fluorouracil, 2.5 µM paclitaxel, or 2.5 µM etoposide to generate 5‐fluorouracil‐resistant, paclitaxel‐resistant, and etoposide‐resistant cell lines, respectively.

[3] = system: Cisplatin-resistance H460 cell line; format: cell-based; conditions: 24 h
Procedure: as §1, §3

[4] = system: Etoposide-resistance (DR-EPT) H460 cell line; format: cell-based; conditions: 24 h
Procedure: as §1, §3

[5] = system: Paclitaxel-resistance (DR-PTX) H460 cell line; format: cell-based; conditions: 24 h
Procedure: as §1, §3

[6] = Compound remaining evaluation in human serum; format: in vitro ADME; conditions: 37 °C, n = 2
Procedure: Compound solutions (50 µL, 3 mM) were mixed with human serum (50 µL) and incubated for 0, 2, 4, 6, 12, and 24 h at 37 °C. Ethanol (250 µL) was added to precipitate serum proteins, and the samples were centrifuged at 14 000 × g for 20 min at 4 °C. Subsequently, 150 µL of supernatant of each sample was analyzed with analytical HPLC and ESI‐MS/MS. HPLC condition: gradient: 100% solution A to 0% solution A from 0 to 60 min; flow rate: 1 mL min^−1; detector wavelength: 214 nm. Each sample had two replicates.
The compound remaining ratio was calculated as (7) Compoundremaining%=CompoundPeakAreanotat0h/CompoundPeakAreaat0h×100%

H460 cell line [7] = experiment: cells; format: cell-based; conditions: 24 h
Procedure: as §1, §2

[8] = system: Galleria mellonella larvae; experiment: In vivo safety evaluation in G. mellonella larvae
Procedure: G. mellonella larvae (Livefoods Direct Ltd., Yorkshire, UK) were used to assess the in vivo safety of peptides. Experiments were conducted on larvae (250 ± 25 mg) incubated at 37 °C. Ten µL of compound 270 solutions with the final concentrations of 50, 80, and 120 µM were injected into the hemolymph via the second pair of prolegs (counting from the head). Control groups were injected with an equal volume of PBS. Larval survival and body weight were monitored every 1 day for a total of 5 days.

Molecule | IC50 (H838 cell line) | IC50 (HMEC-1 normal cell line) | IC50 (HT-1080 cell line) | IC50 (HaCaT normal cell line) | IC50 (MRC-5 normal cell line) | IC50 (HEK-293 normal cell line) | HC10 (concentration causing 10% of erythrocytes lysis) (erythrocytes) | IC50 [2] | IC50 [3] | IC50 [4] | IC50 [5] | IC50 (H460 cell line [7]) | also measured
CC[C@H](C)[C@H](NC(=O)[C@H](CCCCN)NC(=O)[C@@H]1CCCN1C(=O)[C@H](CC(C)C)NC(=O)[C@@H](NC(=O)[C@H](CO)NC(=O)[C@H](CCC(=O)N1CCCCC1)NC(=O)[C@H](CC(C)C)NC(=O)[C@H](CC(=O)O)NC(=O)[C@H](CC(=O)O)NC(=O)[C@H](Cc1ccccc1)NC(=O)[C@@H](NC(=O)[C@H](CCCCN)NC(=O)[C@@H]1CCCN1C(=O)[C@H](Cc1ccccc1)NC(=O)[C@@H](N)Cc1ccccc1)[C@@H](C)CC)[C@@H](C)CC)C(=O)N[C@@H](CC(C)C)C(N)=O [174-3] (H-FFPKIFDDLE(Piperidide)SILPKIL-NH2) | 39.5 µM | 52.9 ± 7.31 µM | 57.6 ± 8.46 µM | 87 µM | 95.8 µM | 32.6 µM | 51.52 µM | 28.9 ± 3.53 µM | 29.2 ± 2.29 µM | 17.7 ± 2.86 µM | 24.2 ± 2.13 µM |  | IC50 (H460 cell line [1]): 23.7 ± 1.03 µM
CC[C@H](C)[C@H](NC(=O)[C@H](CCCCN)NC(=O)[C@@H]1CCCN1C(=O)[C@H](CC(C)C)NC(=O)[C@@H](NC(=O)[C@H](CO)NC(=O)[C@H](CCC(=O)N1CCCCC1)NC(=O)[C@H](CC(C)C)NC(=O)[C@H](CC(=O)O)NC(=O)[C@H](CC(=O)O)NC(=O)[C@H](Cc1ccccc1)NC(=O)[C@@H](NC(=O)[C@H](CCCCN)NC(=O)[C@@H]1CCCN1C(=O)[C@H](Cc1ccccc1)NC(=O)[C@H](Cc1ccccc1)NC(=O)[C@H](CCCCNC(C)=O)NC(=O)[C@H](C)N)[C@@H](C)CC)[C@@H](C)CC)C(=O)N[C@@H](CC(C)C)C(N)=O [239-4-Ac] (H-AK(Ac)FFPKIFDDLE(Piperidide)SILPKIL-NH2) |  |  |  |  |  |  |  |  |  |  |  |  | degradation in human serum, comparison in words ([6]; 50% human serum, HPLC peak area, up to 6 h (239-4-Ac) or 24 h): significantly more prone to degradation
CC[C@H](C)[C@H](NC(=O)[C@H](CCCCN)NC(=O)[C@@H]1CCCN1C(=O)[C@H](CC(C)C)NC(=O)[C@@H](NC(=O)[C@H](CO)NC(=O)[C@H](CCC(=O)N1CCCCC1)NC(=O)[C@H](CC(C)C)NC(=O)[C@H](CC(=O)O)NC(=O)[C@H](CC(=O)O)NC(=O)[C@H](Cc1ccccc1)NC(=O)[C@@H](NC(=O)[C@H](CCCCN)NC(=O)[C@@H]1CCCN1C(=O)[C@H](Cc1ccccc1)NC(=O)[C@H](Cc1ccccc1)NC(=O)[C@H](CCCCN)NC(=O)[C@H](C)N)[C@@H](C)CC)[C@@H](C)CC)C(=O)N[C@@H](CC(C)C)C(=O)NCC(=O)N1CCC[C@H]1C(=O)N[C@@H](CC(C)C)C(=O)NCC(=O)N[C@@H](CC(C)C)C(=O)N[C@@H](C)C(=O)NCC(=O)NCCOCCOCCOCCOCCC(=O)NCCOCCOCCOCCOCCC(=O)NCCOCCOCCOCCOCCC(=O)NCCOCCOCCOCCOCCC(N)=O [compound 247] (H-AKFFPKIFDDLE(Piperidide)SILPKILGPLGLAG[PEG4][PEG4][PEG4][PEG4]-NH2) |  | > 100 µM |  | > 100 µM | > 100 µM | 51.9 ± 5.64 µM | >100 µM |  |  |  |  | 29.2 ± 1.33 µM | 
CC[C@H](C)[C@H](NC(=O)[C@H](CCCCN)NC(=O)[C@@H]1CCCN1C(=O)[C@H](CC(C)C)NC(=O)[C@@H](NC(=O)[C@H](CO)NC(=O)[C@H](CCC(=O)N1CCCCC1)NC(=O)[C@H](CC(C)C)NC(=O)[C@H](CC(=O)O)NC(=O)[C@H](CC(=O)O)NC(=O)[C@H](Cc1ccccc1)NC(=O)[C@@H](NC(=O)[C@H](CCCCN)NC(=O)[C@@H]1CCCN1C(=O)[C@H](Cc1ccccc1)NC(=O)[C@H](Cc1ccccc1)NC(=O)[C@H](CCCCN)NC(=O)[C@H](C)N)[C@@H](C)CC)[C@@H](C)CC)C(=O)N[C@@H](CC(C)C)C(=O)NCC(=O)N1CCC[C@H]1C(=O)N[C@@H](CC(C)C)C(=O)NCC(=O)N[C@@H](CC(C)C)C(=O)N[C@@H](C)C(=O)NCC(=O)NCCOCCOCCOCCOCCC(=O)NCCOCCOCCOCCOCCC(=O)NCCOCCOCCOCCOCCC(=O)NCCOCCOCCOCCOCCC(=O)NCCOCCOCCOCCOCCC(=O)NCCOCCOCCOCCOCCC(N)=O [compound 270] (H-AKFFPKIFDDLE(Piperidide)SILPKILGPLGLAG[PEG4][PEG4][PEG4][PEG4][PEG4][PEG4]-NH2) |  | > 100 µM |  | > 100 µM | > 100 µM | > 100 µM | >100 µM | 56.44 ± 0.25 µM | 54.7 ± 3.28 µM | 28.1 ± 1.42 µM | 35.3 ± 1.83 µM |  | IC95 value, H460 (H460 cell line [7]): ≈ 55 µM; inhibition of HEK-293 cells at 100 µM (HEK-293 normal cell line; 100): 40%; IC50 (H460 cell line [1]): 53.6 ± 2.04 µM; remaining at 24 h, 1.5 mM ([6]; 50% human serum (50 µL 3 mM compound + 50 µL serum), 24 h, ethanol precipitation, analytical HPLC 214 nm peak area vs 0 h, read-out: remaining ratio in human serum after 24 h): ~100%; larval survival after 5 days, 50 µM ([8]; 10 µL injected into hemolymph, 50 µM, 37 °C, day 5): 77.8%; larval survival after 5 days, 80 µM ([8]; 10 µL injected into hemolymph, 80 µM, 37 °C, day 5): 88.9%; larval survival after 5 days, 120 µM ([8]; 10 µL injected into hemolymph, 120 µM, 37 °C, day 5): 77.8%; melanization of larvae ([8]; 50, 80 or 120 µM, 5 days): No melanization
FFPKIFDDLFSILPKIL-NH2 [compound 228] | 26.4 ± 1.78 µM | 30.7 ± 3.14 µM | 30.5 ± 6.05 µM | 34 ± 2.66 µM | 34.1 ± 2.32 µM | 13.8 ± 1.42 µM | 14.57 µM |  |  |  |  | 17.5 ± 0.91 µM | 
FFPKIFDDLSSILPKIL-NH2 [compound 266] | > 100 µM | > 100 µM | > 100 µM | > 100 µM | > 100 µM | > 100 µM | >100 µM |  |  |  |  | > 100 µM | 
FFPLIFGALSSILPKIL-NH2 [compound 111, Temporin‐HLa] | 11 ± 1.06 µM | 13.5 ± 0.8 µM | 7.37 ± 0.7 µM | 13.6 ± 0.91 µM | 26.3 ± 2.59 µM | 8.03 ± 1.1 µM | 6.59 µM | 5.14 ± 0.22 µM | 5.24 ± 0.15 µM | 5.17 ± 0.16 µM | 5.54 ± 0.04 µM | 6.03 ± 0.18 µM | 

Reference: PMC12677599 (Advanced Science, 2025)
